Results from patent US11192891B2, “Diazaspiro ROCK inhibitors” (BRISTOL-MYERS SQUIBB COMPANY, priority 2017, dated 2021).

Target: ROCK2 (Homo sapiens, UniProt O75116)
Assay: ROCK kinase inhibition assay, FITC peptide substrate, LABCHIP 3000 readout
Type: biochemical
Details: 5 μM ATP, 1.5 μM peptide substrate
Method in brief: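 Tested across a concentration range, with percent inhibition of kinase activity derived per concentration. Peptide phosphorylation, initiated by adding the Rho kinase variant (final DMSO <2%), was quenched with EDTA and substrate/product resolved by mobility shift.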

Chain of ROCK2 (O75116 whole entry, species assumed): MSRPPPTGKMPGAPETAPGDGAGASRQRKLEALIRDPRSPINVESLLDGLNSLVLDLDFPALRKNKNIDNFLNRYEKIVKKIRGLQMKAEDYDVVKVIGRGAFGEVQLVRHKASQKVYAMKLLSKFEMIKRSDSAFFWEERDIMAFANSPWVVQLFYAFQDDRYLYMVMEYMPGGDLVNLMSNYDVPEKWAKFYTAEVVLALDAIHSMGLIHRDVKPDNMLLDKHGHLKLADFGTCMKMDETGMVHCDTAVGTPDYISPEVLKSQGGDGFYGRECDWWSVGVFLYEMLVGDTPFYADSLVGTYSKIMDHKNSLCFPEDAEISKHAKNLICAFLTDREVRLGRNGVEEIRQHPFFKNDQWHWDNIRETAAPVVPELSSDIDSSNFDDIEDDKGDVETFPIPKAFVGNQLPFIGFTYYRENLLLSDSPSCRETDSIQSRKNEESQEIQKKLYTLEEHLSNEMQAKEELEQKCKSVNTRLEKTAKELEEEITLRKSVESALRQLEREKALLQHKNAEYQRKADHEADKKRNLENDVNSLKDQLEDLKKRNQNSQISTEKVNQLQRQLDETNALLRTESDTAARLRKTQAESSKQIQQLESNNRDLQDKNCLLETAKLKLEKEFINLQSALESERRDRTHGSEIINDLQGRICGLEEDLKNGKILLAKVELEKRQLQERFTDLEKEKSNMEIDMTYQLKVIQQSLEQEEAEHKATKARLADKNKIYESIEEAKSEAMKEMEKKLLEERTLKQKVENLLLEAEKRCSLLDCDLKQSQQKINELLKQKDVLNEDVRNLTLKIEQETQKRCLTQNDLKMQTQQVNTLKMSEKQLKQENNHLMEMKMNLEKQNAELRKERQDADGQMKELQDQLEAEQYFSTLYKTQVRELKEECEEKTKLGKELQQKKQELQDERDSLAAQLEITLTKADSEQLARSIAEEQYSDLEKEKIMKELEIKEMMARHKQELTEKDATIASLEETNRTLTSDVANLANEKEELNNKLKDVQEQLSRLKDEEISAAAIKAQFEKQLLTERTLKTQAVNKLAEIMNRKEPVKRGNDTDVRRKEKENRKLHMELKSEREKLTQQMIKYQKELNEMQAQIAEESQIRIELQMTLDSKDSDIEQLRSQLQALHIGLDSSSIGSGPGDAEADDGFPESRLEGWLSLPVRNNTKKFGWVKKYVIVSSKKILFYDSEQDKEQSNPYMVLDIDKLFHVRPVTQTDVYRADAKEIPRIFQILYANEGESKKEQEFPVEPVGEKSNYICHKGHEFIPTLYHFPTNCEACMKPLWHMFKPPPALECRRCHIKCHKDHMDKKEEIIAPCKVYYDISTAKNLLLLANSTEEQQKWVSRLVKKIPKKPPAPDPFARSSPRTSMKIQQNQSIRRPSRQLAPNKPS

Row | SMILES | IC50 [nM]
1 | COc1cc(N2CCC3(CCN(C(=O)c4ccno4)CC3)C2=O)ccc1-c1cn[nH]c1 [Example 97, 2-[3-methoxy-4-(1H-pyrazol-4-yl)phenyl]-8-(1,2-oxazole-5-carbonyl)-2,8-diazaspiro[4.5]decan-1-one] | 427
2 | COc1cc(N2CCC3(CCN(C(=O)c4ccc(C(F)(F)F)cn4)CC3)C2=O)ccc1-c1cn[nH]c1 [Example 98, 2-[3-methoxy-4-(1H-pyrazol-4-yl)phenyl]-8-[5-(trifluoromethyl)pyridine-2-carbonyl]-2,8-diazaspiro[4.5]decan-1-one] | 259
3 | COc1ncc(C(=O)N2CCC3(CC2)CCN(c2ccc(-c4cn[nH]c4)c(OC)c2)C3=O)cn1 [Example 99, 2-[3-methoxy-4-(1H-pyrazol-4-yl)phenyl]-8-(2-methoxypyrimidine-5-carbonyl)-2,8-diazaspiro[4.5]decan-1-one] | 464
4 | COc1cc(N2CCC3(CCN(C(=O)c4cc(C5CC5)on4)CC3)C2=O)ccc1-c1cn[nH]c1 [Example 100, 8-(5-cyclopropyl-1,2-oxazole-3-carbonyl)-2-[3-methoxy-4-(1H-pyrazol-4-yl)phenyl]-2,8-diazaspiro[4.5]decan-1-one] | 6
5 | COc1cnc(C(=O)N2CCC3(CC2)CCN(c2ccc(-c4cn[nH]c4)c(OC)c2)C3=O)cn1 [Example 101, 2-[3-methoxy-4-(1H-pyrazol-4-yl)phenyl]-8-(5-methoxypyrazine-2-carbonyl)-2,8-diazaspiro[4.5]decan-1-one] | 86
6 | COc1cc(N2CCC3(CCN(C(=O)C4Cc5ccccc5O4)CC3)C2=O)ccc1-c1cn[nH]c1 (stereo not shown) [Example 102, 8-(2,3-dihydro-1-benzofuran-2-carbonyl)-2-[3-methoxy-4-(1H-pyrazol-4-yl)phenyl]-2,8-diazaspiro[4.5]decan-1-one] | 1970
7 | COc1cc(N2CCC3(CCN(C(=O)c4ccc(F)c(C)c4)CC3)C2=O)ccc1-c1cn[nH]c1 [Example 103, 8-(4-fluoro-3-methylbenzoyl)-2-[3-methoxy-4-(1H-pyrazol-4-yl)phenyl]-2,8-diazaspiro[4.5]decan-1-one] | 96
8 | COc1cc(N2CCC3(CCN(C(=O)c4cc(C)on4)CC3)C2=O)ccc1-c1cn[nH]c1 [Example 104, 2-[3-methoxy-4-(1H-pyrazol-4-yl)phenyl]-8-(5-methyl-1,2-oxazole-3-carbonyl)-2,8-diazaspiro[4.5]decan-1-one] | 72

Results, then the compound that gave them:

Row | IC50 [nM] | SMILES
9 | 78 | COc1cc(N2CCC3(CCN(C(=O)c4ccc(Oc5ncccn5)cc4)CC3)C2=O)ccc1-c1cn[nH]c1 [Example 105, 2-[3-methoxy-4-(1H-pyrazol-4-yl)phenyl]-8-[4-(pyrimidin-2-yloxy)benzoyl]-2,8-diazaspiro[4.5]decan-1-one]
10 | 25 | COc1cc(N2CCC3(CCN(C(=O)c4ccc(-n5cncn5)cc4)CC3)C2=O)ccc1-c1cn[nH]c1 [Example 106, 2-[3-methoxy-4-(1H-pyrazol-4-yl)phenyl]-8-[4-(1H-1,2,4-triazol-1-yl)benzoyl]-2,8-diazaspiro[4.5]decan-1-one]
11 | 67 | COc1cc(N2CCC3(CCN(C(=O)c4cc(C(F)(F)F)n(C)n4)CC3)C2=O)ccc1-c1cn[nH]c1 [Example 107, 2-[3-methoxy-4-(1H-pyrazol-4-yl)phenyl]-8-[1-methyl-S-(trifluoromethyl)-1H-pyrazole-3-carbonyl]-2,8-diazaspiro[4.5]decan-1-one]
12 | 12 | CCc1ccc(C(=O)N2CCC3(CC2)CCN(c2ccc(-c4cn[nH]c4)c(OC)c2)C3=O)nc1 [Example 108, 8-(5-ethylpyridine-2-carbonyl)-2-[3-methoxy-4-(1H-pyrazol-4-yl)phenyl]-2,8-diazaspiro[4.5]decan-1-one]
13 | 362 | COc1cc(N2CCC3(CCN(C(=O)c4cc(Cl)no4)CC3)C2=O)ccc1-c1cn[nH]c1 [Example 109, 8-(3-chloro-1,2-oxazole-5-carbonyl)-2-[3-methoxy-4-(1H-pyrazol-4-yl)phenyl]-2,8-diazaspiro[4.5]decan-1-one]
